In brackets after ≈: the same amount, converted by molar mass.
Legend:
MRSA strain MB #5180 [1] = experiment: antibiotic disc-diffusion assay of MRSA activity, relative to imipenem; type: cell-based, methicillin resistant Staphylococcus aureus; settings: multiples of the relative potency of imipenem
Protocol: In vitro antibacterial activity determined in accordance with the protocol set forth below is predictive of in vivo activity, when the compounds are administered to a mammal infected with a susceptible bacterial organism.
(§1) Minimum inhibitory concentrations for different compounds may be calculated using the procedures set forth in Lorian, V. (ed.) Antibiotics in Laboratory Medicine (3rd ed.) pages 30-35 if desired. However, by comparing disc sensitivities to a known compound, e.g., imipenem, this calculation is not required to recognize MRSA/MRCNS activity.
Assay Used to Test the Activities of Carbapenems Against Methicillin-Resistant Staphylococci: The assay is an antibiotic disc-diffusion assay modeled after the method described by Bauer and Kirby, et al.1, with the following modifications and clarifications:
Agar: This assay employs an agar depth of 2 mm instead of 4 mm.
Zone Readings: The inner, completely clear zone is measured.
Culture Storage: Frozen vials of strains are stored at -80° C. Working slants are prepared from frozen vials and are used for 1 month to 6 weeks. For methicillin-resistant strains the slant medium is Muleller Hinton Agar; for control strains the slant medium is Brain Heart Infusion Agar. After inoculation from frozen vials, methicillin-resistant slant cultures are incubated at 28° C. until good growth is achieved (approximately 20 hours); slants of control strains are incubated at 37° C. for 16-18 hours.
Preparation of Methicillin-Resistant Inocula for Assay: For methicillin-resistant strains, inoculate 0.5 ml of BHIB heavily (to achieve approximately 1×10^8-109 cfu/ml) from the slant culture by using a sterile cotton tipped applicator. […]
Methicillin-resistant Staphylococci: With a cotton tipped applicator, swab enough growth off the grown plates into 1 ml BHIB to achieve a visual concentration of approximately 1×10^9 cfu/ml. […] Add measured quantities of PBS to dilutions to achieve % T @ 1% above or below the % T measurement for the control cultures. […]

MRSA strain MB #5180 [2] = experiment: minimum inhibitory concentration; type: cell-based, methicillin resistant Staphylococcus aureus; settings: Staphylococcus aureus, imipenem (standard)
Protocol: as §1
All compounds below were tested against MRSA strain MB #5180. […]

Row | Compound | MRSA Activity (MRSA strain MB #5180 [1]) | MIC (MRSA strain MB #5180 [2])
1 | C[C@@H](O)[C@H]1C(=O)N2C(C(=O)O)=C3c4cccc(-c5ccccc5)c4CC[C@@H]3[C@H]12 | 1.9 | 
2 | C[C@@H](O)[C@H]1C(=O)N2C(C(=O)O)=C3c4ccccc4CC[C@@H]3[C@H]12 | 1.3 | 
3 | C[C@@H](O)[C@H]1C(=O)N2C(C(=O)O)=C3c4cc(-c5ccccc5)ccc4CC[C@@H]3[C@H]12 | 18.0 | 
4 | C[C@@H](O)[C@H]1C(=O)N2C(C(=O)O)=C(SCCN=CN)C[C@H]12 [imipenem] |  | 46 µg/mL (≈ 154 µM)

Source: patent publication US5384317A, “Bridged biphenyl carbapenem compounds, compositions containing such compounds and methods of use” (Merck & Co., Inc., priority 1993, dated 1995)
